From the supplement of paper PMC10307832

Legend:
Assay in all cases: relative viability (nuclei count vs DMSO), 5 days (fraction); higher = more cells survive
[1] = compound: CNC(=O)c1cc(Oc2ccc(NC(=O)Nc3ccc(Cl)c(C(F)(F)F)c3)cc2)ccn1 [Sorafenib] + C[C@]1(O)C[C@@H](c2nc(-c3ccc4ccc(-c5ccccc5)nc4c3)c3c(N)nccn32)C1 [Linsitinib] (partner 1 µM)
Summary of the method: (§1)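 Relative viability divides the nuclei count in treated wells by that in vehicle wells. Lung cancer cell lines were seeded in 1536-well plates, dosed by pin tool the next day, and fixed and stained after 5 days in one step with final 0.05% Triton X-100, 1% formaldehyde and 1 ug/ml Hoechst. Dosing was a single drug or a fixed anchor-drug dose plus five library-drug doses (not always all listed) in √10 steps, and values are medians of duplicate plates imaged at 4×.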

[2] = compound: CNC(=O)c1cc(Oc2ccc(NC(=O)Nc3ccc(Cl)c(C(F)(F)F)c3)cc2)ccn1 [Sorafenib] + Cc1nc(NC(=O)N2CCC[C@H]2C(N)=O)sc1-c1ccnc(C(C)(C)C(F)(F)F)c1 [Alpelisib] (partner 2 µM)
Summary of the method: as §1

[3] = compound: CNC(=O)c1cc(Oc2ccc(NC(=O)Nc3ccc(Cl)c(C(F)(F)F)c3)cc2)ccn1 [Sorafenib] + CS(=O)(=O)CCNCc1ccc(-c2ccc3ncnc(Nc4ccc(OCc5cccc(F)c5)c(Cl)c4)c3c2)o1 [Lapatinib] (partner 2 µM)
Summary of the method: as §1

[4] = compound: CNC(=O)c1cc(Oc2ccc(NC(=O)Nc3ccc(Cl)c(C(F)(F)F)c3)cc2)ccn1 [Sorafenib] + O=C(c1cc(Cc2n[nH]c(=O)c3ccccc23)ccc1F)N1CCN(C(=O)C2CC2)CC1 [Olaparib] (partner 8 µM)
Summary of the method: as §1

[5] = compound: CNC(=O)c1cc(Oc2ccc(NC(=O)Nc3ccc(Cl)c(C(F)(F)F)c3)cc2)ccn1 [Sorafenib] + Nc1ncn([C@H]2C[C@H](O)[C@@H](CO)O2)c(=O)n1 [Decitabine] (partner 2 µM)
Summary of the method: as §1

[6] = compound: CNC(=O)c1cc(Oc2ccc(NC(=O)Nc3ccc(Cl)c(C(F)(F)F)c3)cc2)ccn1 [Sorafenib] + COc1cc2c(Oc3ccc(NC(=O)C4(C(=O)Nc5ccc(F)cc5)CC4)cc3F)ccnc2cc1OCCCN1CCOCC1 [Foretinib] (partner 0.25 µM)
Summary of the method: as §1

[7] = compound: CNC(=O)c1cc(Oc2ccc(NC(=O)Nc3ccc(Cl)c(C(F)(F)F)c3)cc2)ccn1 [Sorafenib] + CS(=O)(=O)N1CCN(Cc2cc3nc(-c4cccc5[nH]ncc45)nc(N4CCOCC4)c3s2)CC1 [Pictilisib] (partner 1 µM)
Summary of the method: as §1

[8] = compound: CNC(=O)c1cc(Oc2ccc(NC(=O)Nc3ccc(Cl)c(C(F)(F)F)c3)cc2)ccn1 [Sorafenib] + N=C(N)NC(=N)NCCc1ccccc1 [Phenformin] (partner 250 µM)
Summary of the method: as §1

[9] = compound: CNC(=O)c1cc(Oc2ccc(NC(=O)Nc3ccc(Cl)c(C(F)(F)F)c3)cc2)ccn1 [Sorafenib]
Summary of the method: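 Lung cancer cell lines in 1536-well plates were kept overnight at 37 °C, then pinned with five library-drug doses (not always all listed) spaced by √10 on vehicle-anchored plates. After 5 days without medium change, cells were fixed, permeabilised and Hoechst-stained in one step, imaged at 4×, and nuclei were counted with MetaXpress. Viability is treated-well nuclei divided by vehicle-well nuclei, taken as the median over plates. Plates passed only with control CV below 25% and at least one doubling.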

[10] = compound: CNC(=O)c1cc(Oc2ccc(NC(=O)Nc3ccc(Cl)c(C(F)(F)F)c3)cc2)ccn1 [Sorafenib] + CC1(C)CCC(c2ccc(Cl)cc2)=C(CN2CCN(c3ccc(C(=O)NS(=O)(=O)c4ccc(N[C@H](CCN5CCOCC5)CSc5ccccc5)c(S(=O)(=O)C(F)(F)F)c4)cc3)CC2)C1 [Navitoclax] (partner 0.5 µM)
Summary of the method: as §1

[11] = compound: CNC(=O)c1cc(Oc2ccc(NC(=O)Nc3ccc(Cl)c(C(F)(F)F)c3)cc2)ccn1 [Sorafenib] + CC(C)C[C@H](NC(=O)[C@H](Cc1ccccc1)NC(=O)c1cnccn1)B(O)O [Bortezomib] (partner 0.002 µM)
Summary of the method: as §1

[12] = compound: CNC(=O)c1cc(Oc2ccc(NC(=O)Nc3ccc(Cl)c(C(F)(F)F)c3)cc2)ccn1 [Sorafenib] + C[C@@H](Oc1cc(-c2cnn(C3CCNCC3)c2)cnc1N)c1c(Cl)ccc(F)c1Cl [Crizotinib] (partner 1 µM)
Summary of the method: as §1

Cell Line	relative viability ([1]; first compound 2.53 µM)	relative viability ([1]; first compound 8 µM)	relative viability ([2]; first compound 0.08 µM)	relative viability ([2]; first compound 0.253 µM)	relative viability ([2]; first compound 2.53 µM)	relative viability ([2]; first compound 8 µM)	relative viability ([3]; first compound 0.08 µM)	relative viability ([3]; first compound 2.53 µM)	relative viability ([3]; first compound 8 µM)	relative viability ([4]; first compound 0.08 µM)	relative viability ([4]; first compound 2.53 µM)	relative viability ([4]; first compound 8 µM)	relative viability ([6]; first compound 0.08 µM)	relative viability ([6]; first compound 0.253 µM)	relative viability ([6]; first compound 2.53 µM)	relative viability ([6]; first compound 8 µM)	relative viability ([7]; first compound 0.08 µM)	relative viability ([7]; first compound 0.253 µM)	relative viability ([7]; first compound 2.53 µM)	relative viability ([7]; first compound 8 µM)	further results
A549	0.512	0.341	0.803	0.664	0.735	0.453	1.02	0.962	0.208	0.496	0.302	0.208	0.904	0.893	0.896	0.584	0.631	0.5	0.412	0.116	relative viability ([1]; first compound 0.253 µM): 0.622; relative viability ([4]; first compound 0.253 µM): 0.289; relative viability ([5]; first compound 0.08 µM): 0.233; relative viability ([5]; first compound 0.253 µM): 0.34; relative viability ([5]; first compound 2.53 µM): 0.218; relative viability ([5]; first compound 8 µM): 0.245; relative viability ([8]; first compound 0.08 µM): 0.213; relative viability ([8]; first compound 0.253 µM): 0.158; relative viability ([8]; first compound 2.53 µM): 0.193; relative viability ([8]; first compound 8 µM): 0.0523; relative viability ([9]; 0.08 µM): 1.07; relative viability ([9]; 0.253 µM): 0.921; relative viability ([9]; 8 µM): 0.523
Calu-6	0.904	0.778	0.923	0.954	0.948	0.487	1.04	0.99	0.378	0.538	0.531	0.306	0.973	0.852	0.816	0.622	0.964	0.805	0.864	0.351	relative viability ([1]; first compound 0.08 µM): 0.885; relative viability ([10]; first compound 0.08 µM): 0.887; relative viability ([10]; first compound 0.253 µM): 0.794; relative viability ([10]; first compound 2.53 µM): 0.724; relative viability ([10]; first compound 8 µM): 0.457; relative viability ([3]; first compound 0.253 µM): 0.984; relative viability ([11]; first compound 0.08 µM): 0.948; relative viability ([11]; first compound 0.253 µM): 0.936; relative viability ([11]; first compound 2.53 µM): 0.934; relative viability ([11]; first compound 8 µM): 0.61; relative viability ([12]; first compound 0.08 µM): 0.928; relative viability ([12]; first compound 0.253 µM): 0.735; relative viability ([12]; first compound 2.53 µM): 0.679; relative viability ([12]; first compound 8 µM): 0.366; relative viability ([9]; 0.08 µM): 1.06; relative viability ([9]; 0.253 µM): 0.959; relative viability ([9]; 2.53 µM): 0.925; relative viability ([9]; 8 µM): 0.711
